Experimental data published in patent EP0162413A2, “Polyamine for use as a medicine in the treatment of neoplasms” (MERRELL DOW PHARMACEUTICALS INC., priority 1984, dated 1985).

Columns and labels:
B16 Melanoma [1] = assay: Survival of B16 melanoma bearing mice (DFMO, norspermidine); format: in vivo; conditions: B16 i.p.; Norspermidine i.p. 50 mg/kg/day day 1 to 7; DFMO 2% in drinking water
Method: 1 x 10^5 B16 melanoma cells per animal were injected i.p. on day 0. Drug treatments were started on day 1. DFMO was administered as a 2% solution in drinking water (approximately 3 g/kg based on fluid intake). Norspermidine was administered i.p. at 50 mg/kg/day starting day 1 to 7. [formula]

L1210 Leukemia [2] = assay: Polyamine levels of L1210 leukemia cells collected from treated mice; format: in vivo; conditions: L1210 cells collected on day 4; Norspermidine i.p. 50 mg/kg/day; DFMO 2% in drinking water
Method: (§1) 1 x 10^5 L1210 leukemic cells per animal were innoculated i.p. on day 0 and drug treatments were started on day 1. DFMO was administered as 2% solution in drinking water (approximately 3 g/kg based on fluid intake). Norspermidine was administered i.p. at 50 mg/kg/day from day 1 to 7. Polyamine concentrations were determined on cells collected from treated and control animals on day 4. ND: not detectable; [formula]

L1210 Leukemia [3] = assay: Survival of mice with L1210 leukemia (norspermidine, DFMO); format: in vivo; conditions: Norspermidine i.p. 50 mg/kg/day day 1 to 7; DFMO 2% solution in drinking water (approximately 3 g/kg)
Method: as §1

Lewis Lung Tumor (3LL) = assay: Growth of Lewis lung tumor (3LL) in mice (DFMO, norspermidine); format: in vivo; conditions: 3LL s.c.; Norspermidine i.p. 50 mg/kg/day day 1 to 14; DFMO 2% in drinking water; tumors weighed at end of 18 days
Method: 1 x 10^5 3LL cells per animal were injected s.c. in the intrascapular region of the mice on day 0. Drug treatments were started on day 1. DFMO was administered as a 2% solution in drinking water (approximately 3 g/kg based on fluid intake). Norspermidine was administered i.p. 50 mg/kg/day from day 1 to 14. At the end of 18 days, animals were sacrificed, tumors disected and weighed.

HeLa Cells [4] = assay: Polyamine levels of HeLa cells in culture (norspermidine); format: cell-based, Human
HeLa Cells [5] = assay: Growth and mitotic index of HeLa cells in culture (norspermidine); format: cell-based, Human; conditions: 72 hours, 37°C
[6] = system: Mouse Melanoma (B16) Cells; assay: Growth of B16 melanoma cells in culture (N,N'-bis(3-aminopropyl)-1,8-octanediamine); format: cell-based; conditions: 72 hours, 37°C
Method: (§2) HeLa cells and B16 melanoma cells were plated at a density of 1 x 10^5/plate (35 mm) and incubated overnight. Different concentrations of the compound in regular medium --were added and cell growth was determined after 72 hours of incubation at 37°C.

L1210 Leukemia [7] = assay: Antitumor activity against L1210 leukemia in mice, survival (N,N'-bis(3-aminopropyl)-1,8-octanediamine); format: in vivo
Method: Treatment Survival (Days) % T/C Control 7.5 ^± 0.5 Compound 25 mg/kg^* 16.0 ^± 1.5 213.3 6.26 mg/kg^** 27 ^± 3.0 360.0 1 x 10^5 L1210 leukemic cells/animal were inoculated i.p. on day 0 and drug treatments were started as follows: * N,N'-bis(3-aminopropyl)-1,8-octanediamine was administered i.p. at 25 mg/Kg/day. from day 1-7. ^** The compound was administered i.p. at 6.25 mg/kg 4 times a day, every three hours starting at 8:30 a.m. to 5:30 p.m. from days 3-7. [formula]

B16 Melanoma [8] = assay: Antitumor activity against B16 melanoma in mice, tumor weight; format: in vivo; conditions: day 1-10, tumor cells s.c., sacrificed on day 15
Method: (§3) 1 x 10^5 tumor cells/animal were inoculated s.c. on day 0 and the drug treatments were started on day 1. "N,N'-bis (3-aminopropyl)-1, 8-octanediamine was administered at different doses from day 1-10. The animals were sacrificed on day 15 and the tumors were dissected and weighed.

[9] = system: Human Cervical Cancer (HeLa); assay: Growth of HeLa cells in culture (N,N'-bis(3-aminopropyl)-1,8-octanediamine); format: cell-based; conditions: 72 hours, 37°C
Method: as §2

Lewis Lung Carcinoma = assay: Antitumor activity against Lewis lung carcinoma in mice, tumor weight; format: in vivo; conditions: day 1-10, tumor cells s.c., sacrificed on day 15
Method: as §3

NCCCNCCCN [Norspermidine, norspermidine]
% T/C (B16 Melanoma [1]): 133%
Survival (B16 Melanoma [1]): 18.0 days
Polyamine Concentration Spermidine (L1210 Leukemia [2]): 0.69 n·moles/10^6 cells
Polyamine Concentration Spermine (L1210 Leukemia [2]): 0.77 n·moles/10^6 cells
% T/C (L1210 Leukemia [3]): 147%
Survival (L1210 Leukemia [3]): 11.0 days
% Inhibition (Lewis Lung Tumor (3LL)): 32%
Tumor Weight (gr) (Lewis Lung Tumor (3LL)): 3.50 gr
Polyamine Concentration Norspermidine (HeLa Cells [4]; 0.005 mM): 5.31 n·moles/10^6 cells
Polyamine Concentration Putriscine (HeLa Cells [4]; 0.005 mM): 0.026 n·moles/10^6 cells
Polyamine Concentration Spermidine (HeLa Cells [4]; 0.005 mM): 0.849 n·moles/10^6 cells
Polyamine Concentration Spermine (HeLa Cells [4]; 0.005 mM): 0.637 n·moles/10^6 cells
Polyamine Concentration Norspermidine (HeLa Cells [4]; 0.05 mM): 4.30 n·moles/10^6 cells
Polyamine Concentration Spermidine (HeLa Cells [4]; 0.05 mM): 0.433 n·moles/10^6 cells
Polyamine Concentration Spermine (HeLa Cells [4]; 0.05 mM): 0.452 n·moles/10^6 cells
Polyamine Concentration Norspermidine (HeLa Cells [4]; 0.5 mM): 6.32 n·moles/10^6 cells
Polyamine Concentration Spermidine (HeLa Cells [4]; 0.5 mM): 0.481 n·moles/10^6 cells
Polyamine Concentration Spermine (HeLa Cells [4]; 0.5 mM): 0.441 n·moles/10^6 cells
Cell No. x 10^6 (HeLa Cells [5]; 0.005 mM): 0.70 x 10^6
Mitotic Index (HeLa Cells [5]; 0.005 mM): 74.0
Cell No. x 10^6 (HeLa Cells [5]; 0.05 mM): 0.64 x 10^6
Mitotic Index (HeLa Cells [5]; 0.05 mM): 76.7
Cell No. x 10^6 (HeLa Cells [5]; 0.5 mM): 0.70 x 10^6
Mitotic Index (HeLa Cells [5]; 0.5 mM): 71.0
inhibition at 5 µM (HeLa Cells [5]; Homo sapiens, HeLa, 0.005 mM, read-out: % Inhibition of Cell Growth): 61%
inhibition at 50 µM (HeLa Cells [5]; Homo sapiens, HeLa, 0.05 mM, read-out: % Inhibition of Cell Growth): 65%
inhibition at 500 µM (HeLa Cells [5]; Homo sapiens, HeLa, 0.5 mM, read-out: % Inhibition of Cell Growth): 61%

NCCCNCCCCCCCCNCCCN [N,N'-bis(3-aminopropyl)-1,8-octanediamine]
B16 Melanoma Cell No. x 10^6 ([6]; 0.001 mM): 14.5 x 10^6
B16 Melanoma Cell No. x 10^6 ([6]; 0.01 mM): 7.40 x 10^6
B16 Melanoma Cell No. x 10^6 ([6]; 0.1 mM): 7.42 x 10^6
B16 Melanoma Cell No. x 10^6 ([6]; 1.0 mM): 0 x 10^6
inhibition at 1 µM ([6]; Mus musculus, B16, 0.001 mM, read-out: B16 Melanoma % Inh. of Cell Growth): 16%
inhibition at 10 µM ([6]; Mus musculus, B16, 0.01 mM, read-out: B16 Melanoma % Inh. of Cell Growth): 57%
inhibition at 100 µM ([6]; Mus musculus, B16, 0.1 mM, read-out: B16 Melanoma % Inh. of Cell Growth): 57%
inhibition at 1000 µM ([6]; Mus musculus, B16, 1.0 mM, read-out: B16 Melanoma % Inh. of Cell Growth): 100%
% T/C (L1210 Leukemia [7]; 6.26 mg/kg (footnote: i.p. at 6.25 mg/kg 4 times a day, every three hours, days 3-7)): 360.0%
% T/C (L1210 Leukemia [7]; 25 mg/kg: i.p. at 25 mg/Kg/day from day 1-7): 213.3%
B16 Melanoma % Inh. (B16 Melanoma [8]; 6.25 mg/kg): 66%
B16 Melanoma Tumor Weight (gms) (B16 Melanoma [8]; 6.25 mg/kg): 1.68 ± 0.37 gms
B16 Melanoma % Inh. (B16 Melanoma [8]; 12.5 mg/kg): 81%
B16 Melanoma Tumor Weight (gms) (B16 Melanoma [8]; 12.5 mg/kg): 0.95 ± 0.29 gms
HeLa Cells Cell No. x 10^5 ([9]; 0.001 mM): 7.56 x 10^5
HeLa Cells Cell No. x 10^5 ([9]; 0.01 mM): 5.9 x 10^5
HeLa Cells Cell No. x 10^5 ([9]; 0.1 mM): 4.56 x 10^5
HeLa Cells Cell No. x 10^5 ([9]; 1.0 mM): 2.82 x 10^5
inhibition at 1 µM ([9]; Homo sapiens, HeLa, 0.001 mM, read-out: HeLa Cells % Inh. of Cell Growth): 39%
inhibition at 10 µM ([9]; Homo sapiens, HeLa, 0.01 mM, read-out: HeLa Cells % Inh. of Cell Growth): 50%
inhibition at 100 µM ([9]; Homo sapiens, HeLa, 0.1 mM, read-out: HeLa Cells % Inh. of Cell Growth): 62%
inhibition at 1000 µM ([9]; Homo sapiens, HeLa, 1.0 mM, read-out: HeLa Cells % Inh. of Cell Growth): 76%
Lewis Lung Carcinoma % Inh. (Lewis Lung Carcinoma; 6.25 mg/kg): 37%
Lewis Lung Carcinoma Tumor Weight (gms) (Lewis Lung Carcinoma; 6.25 mg/kg): 3.10 ± 0.39 gms
Lewis Lung Carcinoma % Inh. (Lewis Lung Carcinoma; 12.5 mg/kg): 61%
Lewis Lung Carcinoma Tumor Weight (gms) (Lewis Lung Carcinoma; 12.5 mg/kg): 1.94 ± 0.24 gms

NCCC[C@](N)(C(=O)O)C(F)F [DFMO, α-difluoromethyl ornithine, reference compound]
% T/C (B16 Melanoma [1]): 129%
Survival (B16 Melanoma [1]): 17.5 days
Polyamine Concentration Putrescine (L1210 Leukemia [2]): 0.015 n·moles/10^6 cells
Polyamine Concentration Spermidine (L1210 Leukemia [2]): 0.84 n·moles/10^6 cells
Polyamine Concentration Spermine (L1210 Leukemia [2]): 1.18 n·moles/10^6 cells
% T/C (L1210 Leukemia [3]): 107%
Survival (L1210 Leukemia [3]): 8.0 days
% Inhibition (Lewis Lung Tumor (3LL)): 4%
Tumor Weight (gr) (Lewis Lung Tumor (3LL)): 4.92 gr
